# Data published in PubChem BioAssay (NCI).
#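 How tested: cells in 96-well plates exposed to compound for 48 hours at five concentrations. GI50 = concentration required for 50% inhibition of growth. TGI: concentration producing complete growth inhibition.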
# Tests used:
# Assay in all cases: growth of human tumour cells (NCI), 48 h
# RXF 393 renal = test system: RXF 393 renal
# NCI-H23 lung = test system: NCI-H23 lung
# LOX IMVI melanoma = test system: LOX IMVI melanoma
# K-562 leukemia = test system: K-562 leukemia
# MALME-3M melanoma = test system: MALME-3M melanoma
# HCT-116 colon = test system: HCT-116 colon
# SNB-75 CNS = test system: SNB-75 CNS
# MDA-MB-468 breast = test system: MDA-MB-468 breast
# OVCAR-8 ovarian = test system: OVCAR-8 ovarian
# SW-620 colon = test system: SW-620 colon
# SF-295 CNS = test system: SF-295 CNS
# OVCAR-3 ovarian = test system: OVCAR-3 ovarian
# ACHN renal = test system: ACHN renal
# HOP-92 NSCLC = test system: HOP-92 NSCLC
# A549 NSCLC = test system: A549 NSCLC
# M14 melanoma = test system: M14 melanoma
# BT-549 breast = test system: BT-549 breast
# SK-MEL-28 melanoma = test system: SK-MEL-28 melanoma
# NCI-H226 lung = test system: NCI-H226 lung
# MDA-MB-231 breast = test system: MDA-MB-231 breast
# U251 CNS = test system: U251 CNS
# CCRF-CEM leukemia = test system: CCRF-CEM leukemia
# IGROV1 ovarian = test system: IGROV1 ovarian
# SN12C renal = test system: SN12C renal
# HCC-2998 colon = test system: HCC-2998 colon
# HT29 colon = test system: HT29 colon
# NCI/ADR-RES ovarian = test system: NCI/ADR-RES ovarian
# TK-10 renal = test system: TK-10 renal
# SK-MEL-5 melanoma = test system: SK-MEL-5 melanoma
# SK-MEL-2 melanoma = test system: SK-MEL-2 melanoma
# MDA-MB-435 = test system: MDA-MB-435
# NCI-H522 lung = test system: NCI-H522 lung
# CAKI-1 renal = test system: CAKI-1 renal
# COLO 205 colon = test system: COLO 205 colon
# EKVX NSCLC = test system: EKVX NSCLC
# KM12 colon = test system: KM12 colon
# MCF7 breast = test system: MCF7 breast
# SNB-19 CNS = test system: SNB-19 CNS
# HS 578T breast = test system: HS 578T breast
# PC-3 prostate = test system: PC-3 prostate
# DU-145 prostate = test system: DU-145 prostate
# UACC-257 melanoma = test system: UACC-257 melanoma
# OVCAR-5 ovarian = test system: OVCAR-5 ovarian
# NCI-H460 lung = test system: NCI-H460 lung
# HL-60(TB) leukemia = test system: HL-60(TB) leukemia
# RPMI-8226 leukemia = test system: RPMI-8226 leukemia
# T-47D breast = test system: T-47D breast
# 786-0 renal = test system: 786-0 renal
# HOP-62 NSCLC = test system: HOP-62 NSCLC
# UACC-62 melanoma = test system: UACC-62 melanoma
# SF-268 CNS = test system: SF-268 CNS
# HCT-15 colon = test system: HCT-15 colon
# UO-31 renal = test system: UO-31 renal
# A498 renal = test system: A498 renal
# SF-539 CNS = test system: SF-539 CNS
# SK-OV-3 ovarian = test system: SK-OV-3 ovarian
structure (smiles),measurement,setting,value
CN(C)c1nc(NCCNS(=O)(=O)c2ccc(C3=Nc4c(N)nc(N)nc4NC(c4ccc(Cl)cc4)C3)cc2)nc(Nc2ccc(F)cc2)n1 (configuration not stated),GI50,RXF 393 renal,2.27 µM
same,TGI,RXF 393 renal,8.75 µM
same,GI50,NCI-H23 lung,72.7 µM
same,TGI,NCI-H23 lung,> 100 µM
same,GI50,LOX IMVI melanoma,1.77 µM
same,TGI,LOX IMVI melanoma,3.55 µM
same,GI50,K-562 leukemia,3.08 µM
same,TGI,K-562 leukemia,> 100 µM
same,GI50,MALME-3M melanoma,3.86 µM
same,TGI,MALME-3M melanoma,19.2 µM
same,GI50,HCT-116 colon,3.77 µM
same,TGI,HCT-116 colon,> 100 µM
same,GI50,SNB-75 CNS,3.76 µM
same,TGI,SNB-75 CNS,> 100 µM
same,GI50,MDA-MB-468 breast,1.92 µM
same,TGI,MDA-MB-468 breast,4.92 µM
same,GI50,OVCAR-8 ovarian,> 100 µM
same,TGI,OVCAR-8 ovarian,> 100 µM
same,GI50,SW-620 colon,5.95 µM
same,TGI,SW-620 colon,> 100 µM
same,GI50,SF-295 CNS,6.2 µM
same,TGI,SF-295 CNS,> 100 µM
same,GI50,OVCAR-3 ovarian,7.45 µM
same,TGI,OVCAR-3 ovarian,> 100 µM
same,GI50,ACHN renal,> 100 µM
same,TGI,ACHN renal,> 100 µM
same,GI50,HOP-92 NSCLC,2.53 µM
same,TGI,HOP-92 NSCLC,13.2 µM
same,GI50,A549 NSCLC,> 100 µM
same,TGI,A549 NSCLC,> 100 µM
same,GI50,M14 melanoma,3.15 µM
same,TGI,M14 melanoma,11.5 µM
same,GI50,BT-549 breast,3.96 µM
same,TGI,BT-549 breast,28.7 µM
same,GI50,SK-MEL-28 melanoma,8.22 µM
same,TGI,SK-MEL-28 melanoma,> 100 µM
same,GI50,NCI-H226 lung,> 100 µM
same,TGI,NCI-H226 lung,> 100 µM
same,GI50,MDA-MB-231 breast,3.73 µM
same,TGI,MDA-MB-231 breast,65.7 µM
same,GI50,U251 CNS,5.14 µM
same,TGI,U251 CNS,> 100 µM
same,GI50,CCRF-CEM leukemia,2.92 µM
same,TGI,CCRF-CEM leukemia,> 100 µM
same,GI50,IGROV1 ovarian,9.95 µM
same,TGI,IGROV1 ovarian,> 100 µM
same,GI50,SN12C renal,7.38 µM
same,TGI,SN12C renal,> 100 µM
same,GI50,HCC-2998 colon,3.14 µM
same,TGI,HCC-2998 colon,18.4 µM
same,GI50,HT29 colon,2.68 µM
same,TGI,HT29 colon,7.54 µM
same,GI50,NCI/ADR-RES ovarian,> 100 µM
same,TGI,NCI/ADR-RES ovarian,> 100 µM
same,GI50,TK-10 renal,> 100 µM
same,TGI,TK-10 renal,> 100 µM
same,GI50,SK-MEL-5 melanoma,3.45 µM
same,TGI,SK-MEL-5 melanoma,14.3 µM
same,GI50,SK-MEL-2 melanoma,3.34 µM
same,TGI,SK-MEL-2 melanoma,14 µM
same,GI50,MDA-MB-435,5.17 µM
same,TGI,MDA-MB-435,> 100 µM
same,GI50,NCI-H522 lung,16 µM
same,TGI,NCI-H522 lung,> 100 µM
same,GI50,CAKI-1 renal,8.07 µM
same,TGI,CAKI-1 renal,> 100 µM
same,GI50,COLO 205 colon,5.65 µM
same,TGI,COLO 205 colon,25.6 µM
same,GI50,EKVX NSCLC,5.05 µM
same,TGI,EKVX NSCLC,> 100 µM
same,GI50,KM12 colon,3.98 µM
same,TGI,KM12 colon,> 100 µM
same,GI50,MCF7 breast,2.89 µM
same,TGI,MCF7 breast,> 100 µM
same,GI50,SNB-19 CNS,5.67 µM
same,TGI,SNB-19 CNS,> 100 µM
same,GI50,HS 578T breast,7.15 µM
same,TGI,HS 578T breast,> 100 µM
same,GI50,PC-3 prostate,3.44 µM
same,TGI,PC-3 prostate,> 100 µM
same,GI50,DU-145 prostate,> 100 µM
same,TGI,DU-145 prostate,> 100 µM
same,GI50,UACC-257 melanoma,8.07 µM
same,TGI,UACC-257 melanoma,> 100 µM
same,GI50,OVCAR-5 ovarian,> 100 µM
same,TGI,OVCAR-5 ovarian,> 100 µM
same,GI50,NCI-H460 lung,4.49 µM
same,TGI,NCI-H460 lung,> 100 µM
same,GI50,HL-60(TB) leukemia,2.72 µM
same,TGI,HL-60(TB) leukemia,13.3 µM
same,GI50,RPMI-8226 leukemia,3.19 µM
same,TGI,RPMI-8226 leukemia,> 100 µM
same,GI50,T-47D breast,7.93 µM
same,TGI,T-47D breast,> 100 µM
same,GI50,786-0 renal,6.21 µM
same,TGI,786-0 renal,> 100 µM
same,GI50,HOP-62 NSCLC,> 100 µM
same,TGI,HOP-62 NSCLC,> 100 µM
same,GI50,UACC-62 melanoma,6.46 µM
same,TGI,UACC-62 melanoma,> 100 µM
same,GI50,SF-268 CNS,5.74 µM
same,TGI,SF-268 CNS,> 100 µM
same,GI50,HCT-15 colon,> 100 µM
same,TGI,HCT-15 colon,> 100 µM
same,GI50,UO-31 renal,> 100 µM
same,TGI,UO-31 renal,> 100 µM
same,GI50,A498 renal,58.4 µM
same,TGI,A498 renal,> 100 µM
same,GI50,SF-539 CNS,3.3 µM
same,TGI,SF-539 CNS,> 100 µM
same,GI50,SK-OV-3 ovarian,> 100 µM
same,TGI,SK-OV-3 ovarian,> 100 µM
